Values of other authors as cited in PubChem BioAssay AID1259409 (Chemical Carcinogenesis Research Information System (CCRIS), 2018).

Test system: rodent chemically induced tumor inhibition, incidence and multiplicity
Test: CCRIS tumor inhibitor studies
Conditions: Route [Inhibitor]: ORAL, Promoter: NONE USED

**Q.** For `CC1=C(/C=C/C(C)=C/C=C/C(C)=C/C(=O)Nc2ccc(O)cc2)C(C)(C)CCC1`, which “tumour outcome (control, treated, inhibition, significance)” value (Carcinogen: N-NITROSOBIS(2-OXYPROPYL)AMINE, 60599-38-4, Dose [Inhibitor]: 0.05, 0.1 OR 0.2 MILLIMOLAR/KG DIET FOR 32 WK STARTING 1 WK AFTER THE CARCINOGEN DOSE (STUDY DURATION: 33 WK), Species: HAMSTER, Strain/Sex: SYRIAN/MALE, Target Tissue: Type of Lesion: LUNG: ADENOMA, Dose [Carcinogen]: 40 MG/KG ONCE) is on record?
**A.** 1/12 (8%), 2/21 (10%), -25%, not significant

**Q.** And the “tumour outcome (control, treated, inhibition, significance)” value (Carcinogen: N-NITROSOBIS(2-OXYPROPYL)AMINE, 60599-38-4, Dose [Inhibitor]: 0.05, 0.1 OR 0.2 MILLIMOLAR/KG DIET FOR 32 WK STARTING 1 WK AFTER THE CARCINOGEN DOSE (STUDY DURATION: 33 WK), Species: HAMSTER, Strain/Sex: SYRIAN/MALE, Target Tissue: Type of Lesion: PANCREAS: ADENOMA, Dose [Carcinogen]: 40 MG/KG ONCE)?
**A.** 12/12 (100%), 21/21 (100%), 0%, not significant

**Q.** What about the “tumour outcome (control, treated, inhibition, significance)” value (Carcinogen: N-NITROSOBIS(2-OXYPROPYL)AMINE, 60599-38-4, Dose [Inhibitor]: 0.05, 0.1 OR 0.2 MILLIMOLAR/KG DIET FOR 32 WK STARTING 1 WK AFTER THE CARCINOGEN DOSE (STUDY DURATION: 33 WK), Species: HAMSTER, Strain/Sex: SYRIAN/MALE, Target Tissue: Type of Lesion: PANCREAS: CARCINOMA, Dose [Carcinogen]: 40 MG/KG ONCE) of the same compound?
**A.** 6/12 (50%), 13/21 (62%), -24%, not significant

**Q.** And the “tumour outcome (control, treated, inhibition, significance)” value (Carcinogen: NONE USED, Dose [Inhibitor]: 1 MILLIMOLAR IN DIET DAILY FOR 39 WK STARTING AT 2 MO OF AGE THROUGH THE END OF THE STUDY (STUDY DURATION: 39 WK), Species: MOUSE, Strain/Sex: C3H/FEMALE, Target Tissue: Type of Lesion: MAMMARY GLAND: ADENOCARCINOMA)?
**A.** 83/98 (85%), 71/100 (71%), 16%, not significant

**Q.** What about the “tumour outcome (control, treated, inhibition, significance)” value (Carcinogen: NONE USED, Dose [Inhibitor]: 1 MILLIMOLAR IN DIET FOR 14 WK STARTING AT 4-6 MO OF AGE THROUGH THE END OF THE STUDY (STUDY DURATION: 14 WK), Species: MOUSE, Strain/Sex: C3H/FEMALE, Target Tissue: Type of Lesion: MAMMARY GLAND: ADENOCARCINOMA) of the same compound?
**A.** 54/78 (69%), 62/78 (80%), -16%, not significant

**Q.** What about the “tumour outcome (control, treated, inhibition, significance)” value (Carcinogen: NONE USED, Dose [Inhibitor]: 1 MILLIMOLAR IN DIET FOR 39 WK STARTING AT 2 MO OF AGE THROUGH THE END OF THE STUDY (STUDY DURATION: 39 WK), Species: MOUSE, Strain/Sex: C3H/FEMALE, Target Tissue: Type of Lesion: MAMMARY GLAND: ADENOCARCINOMA) of the same compound?
**A.** 83/98 (85%), 71/100 (71%), 16%, not significant

**Q.** And the “tumour outcome (control, treated, inhibition, significance)” value (Carcinogen: NONE USED, Dose [Inhibitor]: 1.0 MM/KG IN DIET DAILY FOR 14 WK STARTING AT 4-6 MO OF AGE THROUGH THE END OF THE STUDY (STUDY DURATION: 14 WK), Species: MOUSE, Strain/Sex: C3H/FEMALE, Target Tissue: Type of Lesion: MAMMARY GLAND: ADENOCARCINOMA)?
**A.** 54/78 (69%), 62/78 (80%), -16%, not significant

**Q.** And the “tumour outcome (control, treated, inhibition, significance)” value (Carcinogen: NONE USED, Dose [Inhibitor]: 783 MG/KG DIET DAILY FOR 54 WK (STUDY DURATION: 54 WK), Species: RAT, Strain/Sex: ACI/MALE, Target Tissue: Type of Lesion: ADRENAL GLAND: TUMOR)?
**A.** 15/43 (35%), 18/43 (42%), -20%, not significant

**Q.** And the “tumour outcome (control, treated, inhibition, significance)” value (Carcinogen: NONE USED, Dose [Inhibitor]: 783 MG/KG DIET DAILY FOR 54 WK (STUDY DURATION: 54 WK), Species: RAT, Strain/Sex: ACI/MALE, Target Tissue: Type of Lesion: PANCREAS: ADENOMA)?
**A.** 1/40 (3%), 5/44 (11%), -267%, not significant

**Q.** What about the “tumour outcome (control, treated, inhibition, significance)” value (Carcinogen: NONE USED, Dose [Inhibitor]: 783 MG/KG DIET DAILY FOR 54 WK (STUDY DURATION: 54 WK), Species: RAT, Strain/Sex: ACI/MALE, Target Tissue: Type of Lesion: PITUITARY GLAND: ADENOMA OR CARCINOMA) of the same compound?
**A.** 20/39 (51%), 19/42 (45%), 12%, not significant

**Q.** What about the “tumour outcome (control, treated, inhibition, significance)” value (Carcinogen: NONE USED, Dose [Inhibitor]: 783 MG/KG DIET DAILY FOR 54 WK (STUDY DURATION: 54 WK), Species: RAT, Strain/Sex: ACI/MALE, Target Tissue: Type of Lesion: PROSTATE GLAND: ADENOMA OR CARCINOMA) of the same compound?
**A.** 19/44 (43%), 11/40 (28%), 35%, not significant

**Q.** What about the “tumour outcome (control, treated, inhibition, significance)” value (Carcinogen: NONE USED, Dose [Inhibitor]: 783 MG/KG DIET DAILY FOR 54 WK (STUDY DURATION: 54 WK), Species: RAT, Strain/Sex: ACI/MALE, Target Tissue: Type of Lesion: SKIN: TUMORS) of the same compound?
**A.** 12/45 (27%), 3/45 (7%), 74%, p<0.025

**Q.** What about the “tumour outcome (control, treated, inhibition, significance)” value (Carcinogen: NONE USED, Dose [Inhibitor]: 783 MG/KG DIET DAILY FOR 54 WK (STUDY DURATION: 54 WK), Species: RAT, Strain/Sex: ACI/MALE, Target Tissue: Type of Lesion: TESTES: INTERSTITIAL CELL TUMOR) of the same compound?
**A.** 21/45 (47%), 24/44 (55%), -17%, not significant
